Structures are written as SMILES.

The source of these data is patent publication US10905680B2, “Methods of treatment for cholestatic and fibrotic diseases” (Genfit, priority 2016, dated 2021).

Series [1] deals with human primary hepatic stellate cells (hHSC). The series is described as follows: TGFβ1-induced expression of α-SMA protein in human HSC (ELISA). The format is cell-based. As to conditions: Homo sapiens, 1 h preincubation, TGFβ1 1 ng/ml, 48 hours, read-out: IC50 (level of α-SMA in TGFβ-induced HSCs). The procedure:
Serum-deprived HSC were preincubated for 1 hour with NTZ (A) or TZ (B) before the activation with the profibrogenic cytokine TGFβ1 (1 ng/ml). After 48 hours of incubation, the expression of α-SMA was measured by ELISA. The obtained values were transformed into percentage inhibition over TGFβ1 control. Data are presented as mean (triplicates)±standard deviation (SD). Statistical analyses were performed by one-way ANOVA followed by Bonferroni post-hoc tests, using Sigma Plot 11.0 software. [*: p<0.05; **: p<0.01; ***: p<0.001 (comparison versus TGFβ1 1 ng/mL group)]. The curve fitting and the calculation of half maximal inhibitory concentration (IC50) were performed with XLFit software 5.3.1.3. The human primary hepatic stellate cells (hHSC) (Innoprot) were cultured in STeCM medium (ScienCell cat #5301) that was supplemented with 2% fetal bovine serum (FBS, ScienCell cat #0010), 1% penicillin/streptomycin (ScienCell cat #0503) and stellate cell growth supplement (SteCGS; ScienCell cat #5352). Cell culture flasks were coated with Poly-L Lysine (Sigma cat # P4707) for a better adherence. The human primary hepatic stellate cells (hHSC) (Innoprot) were cultured under standard conditions, as described above. The cells were subsequently plated at a density of 7×10^4 cells/well into 24-well plates for gene expression studies, and at a density of 2×10^4 cells/well into 96-well plates for the measure of α-SMA by ELISA. The next day, cell culture medium was removed, and cells were washed with PBS (Invitrogen cat #14190). hHSC were deprived for 24 hours in serum-free and SteCGS-free medium. For the treatments with NTZ or TZ, the serum-deprived hHSC were preincubated for 1 hour with the compounds followed by the addition of the profibrogenic stimuli TGFβ1 (PeproTech cat #100-21, 1 ng/mL) in serum-free and SteCGS-free medium for an additional 24 or 48 hour period (the timepoint is indicated in the figure legends). […] The level of α-SMA was measured using a Sandwich ELISA. […]
(In general: In an ELISA, binding on a coated surface is turned into a signal by an enzyme label.)

A further series has as its system HSC. The series is described as follows: Toxicity assays in HSC. The format is cell-based, human. The conditions noted are these: data not shown.

The IC50 is the midpoint of a concentration-inhibition curve. As to `CC(=O)Oc1ccccc1C(=O)Nc1ncc([N+](=O)[O-])s1` [NTZ, [2-[(5-nitro-1,3-thiazol-2-yl)carbamoyl]phenyl]ethanoate, reference compound], in series [1], the IC50 lay in the range of 0.1 to 3 µM. The “toxicity or apoptosis of HSC” value with HSC is “not due to toxicity or apoptosis”.
